Measurements as given in patent US20110052723A1, “USE OF COMPOUNDS BINDING TO THE SIGMA RECEPTOR LIGANDS FOR THE TREATMENT OF NEUROPATHIC PAIN DEVELOPING AS A CONSEQUENCE OF CHEMOTHERAPY” (priority 2008, published 2011).

Key:
[1] = system: CD-1 mice; assay: Paclitaxel-induced cold allodynia, acetone test
Method: Experiments were performed in CD-1 mice (Charles River, U.S.A.) with at least n=10/experimental group. […] Control animals received the same volume of solvent (a mixture of ethanol and cremophor EL)
Mechanical allodynia was evaluated with an electronically driven Von Frey filament (Dynamic Plantar Aesthesiometer, Ugo Basile, Varese, Italy) as previously described (Nieto et al., 2008), and cold allodynia was evaluated using the acetone drop method (Polomano et al., 2001; Smith et al., 2004).
In addition, in order to study the influence of the sigma 1 receptor in this process the difference in development of allodynia was determined using wild-type mice and sigma 1-receptor knock-out-mice.
Therefore, the cumulative dose was 10 mg/kg per mouse.
BD-1063 was dissolved in normal saline just before administration and applied at doses of 8, 16, 32 or 64 mg/kg subcutaneously.
The response of the animals to the different nociceptive stimuli was tested subsequently during 2-4 weeks, depending on the test (see below), without any additional treatment. Each animal was tested only in one nociceptive model. […] Each animal received only one dose of BD-1063 and was tested in only one nociceptive model.
Procedure for assessment of cold allodynia. Cold allodynia was tested as previously described by Smith et al., 2004, by gently touching the plantar skin of the hind paws with an acetone bubble formed with a syringe connected to a thin polyethylene tube. The mice were housed and habituated for 30 min in transparent plastic boxes (7×7×13 cm) with a floor made of wire mesh. After the adaptation period, acetone was applied alternately three times to each paw at intervals of 30 s, and the duration and frequency of licking or biting were recorded. A small mirror was placed behind the chambers to allow clear observation of the paws. The time spent licking or biting the paw was recorded by a stopwatch and represented as the cumulative time of licking/biting in the six measurements. Since licking persisting more than 10 s in the experiments was very unusual, a cut-off time of 10 s was used for each trial.
Therefore, the day 10, after the habituation period to the apparatus, baseline latencies were recorded, 30 min later BD-1063 or saline was injected s.c. and paw withdrawal latencies were assessed again 30, 60, 90, 120 and 180 minutes after the injection.

[2] = system: CD-1 mice; assay: Paclitaxel-induced mechanical allodynia, Von Frey test; format: in vivo
Method: Procedure for assessment of mechanical allodynia. To assess mechanical allodynia, paw withdrawal thresholds were measured using a Dynamic Plantar Aesthesiometer (Ugo Basile, Italy). The electronic Von Frey device employs a single nonflexible filament which applies a progressively increasing force (from 0 to 10 g) against the plantar surface of the hind paw over a 20 s period. […] The day of the experiment, mice were placed individually in test compartments (9×9×14 cm) with a wire mesh bottom and allowed to acclimatize to them for 2 h. After habituation, each mouse was tested three times alternately in each hind paw.

[3] = system: sigma receptor; settings: Sigma 1 and Sigma 2; cited from earlier work
[4] = system: patients; settings: paclitaxel 135 mg/m^2; cited from earlier work
[5] = sigma-1-receptor knockout animals, paclitaxel 2 mg/kg i.p. once daily during 5 days
[6] = wild-type animals, paclitaxel 2 mg/kg i.p. once daily during 5 days

## CN1CCN(CCc2ccc(Cl)c(Cl)c2)CC1 [BD-1063]
[1]; BD-1063 32 mg/kg 30 min before each paclitaxel injection (2 mg/kg i.p.), days 1 to 5, tested to day 24
  development of paclitaxel-induced cold allodynia (duration of hind paw licking/biting): inhibited the development of cold allodynia
[1]; single s.c. injection on day 10, 8, 16, 32 or 64 mg/kg, dose-dependent, significantly different from saline
  expression of paclitaxel-induced cold allodynia (duration of hind paw licking/biting): inhibited the expression of paclitaxel-induced cold allodynia
[2]; single s.c. injection on day 10, 32 or 64 mg/kg, dose-dependent, significantly different from saline
  expression of paclitaxel-induced mechanical allodynia (threshold force for paw withdrawal): inhibited the expression of paclitaxel-induced mechanical allodynia

## CC(C)=CCN1CCC2(C)c3cc(O)ccc3CC1C2C (stereo not shown) [pentazocine]
[3]
  affinity of the sigma receptors to analgesics: very high affinity

## CC(=O)O[C@H]1C(=O)[C@@]2(C)[C@H]([C@H](OC(=O)c3ccccc3)[C@]3(O)C[C@H](OC(=O)[C@H](O)[C@@H](NC(=O)c4ccccc4)c4ccccc4)C(C)=C1C3(C)C)[C@]1(OC(C)=O)CO[C@@H]1C[C@@H]2O [paclitaxel, Paclitaxel]
[1]; control mice, paclitaxel 2 mg/kg i.p. once daily during 5 days
  time of maximal paclitaxel-induced cold allodynia after the first injection: 10 to 14 days
[1]; paclitaxel 2 mg/kg i.p. once daily during 5 days
  animals with significantly increased time licking/biting the stimulated paw (paclitaxel-responder animals): 67%
[1]; [5]
  paclitaxel-induced cold allodynia: not significantly expressed
[1]; [6]
  time of maximal paclitaxel-induced cold allodynia after the first injection: 10 days
[4]
  patients progressing to dose-limiting neurotoxicity: 0%
[2]; paclitaxel 2 mg/kg i.p. during 5 days, vs pre-treatment and vehicle
  mechanical allodynia (threshold force for paw withdrawal) on day 10: induced mechanical allodynia
[2]; [5]
  paclitaxel-induced mechanical allodynia: not significantly expressed
[2]; treated with paclitaxel
  animals showing a reduction of the mechanical threshold: 96%
[2]; [6]
  time of maximal paclitaxel-induced mechanical allodynia after the first injection: 10 days
